# Reference: patent publication US12630510B2, “EP2 antagonist” (ONO PHARMACEUTICAL CO., LTD., priority 2019, dated 2026)
# Target: T1, human EP2 receptor (Homo sapiens, UniProt P43116)
# T1 construct: expressed in transfected cells; host or cells: CHO cells
# Assay: Experiment of measuring EP2 antagonistic activity using cells expressing prostanoid receptor (cAMP)
# Assay type: cell-based
# Details: CHO cells expressing human EP2 receptor; PGE2 10 nmol/L; cAMP quantified after 1 hour at room temperature; read-out: EP2_IC50
# Method: CHO cells on each of which a human EP2 receptor had been expressed were prepared in accordance with the method by Nishigaki et al, (FEBS Letters, vol. 364, pp. 339-341, 1995) and were then cryopreserved in CELLBANKER2 (Nippon Zenyaku Kogyo Co., Ltd.) at a concentration of 1.5×10^7 cells/mL/vial. The CHO cells thus prepared were used in the experiment. The cells were thawed, and were then suspended in an assay medium (D-PBS containing 1 mmol/L IBMX, 2 μmol/L Diclofenac) at a concentration of 5×10^5 cells/mL. PGE2 alone having a final concentration of 10 nmol/L or a solution (10 μL) containing the PGE2 and a test compound was added to the cell suspension (10 μL) to initiate the reaction. After the reaction was performed at room temperature for 1 hour, the amount of cAMP in the cells was quantified in accordance with the method described in cAMP Gs Dynamic kit (CISBIO).
# The antagonistic activity (IC50 value) of a test compound was calculated as a percentage of suppression of the reaction at 10 nM, which was a concentration at which a submaximal cAMP production activity was observed when PGE2 alone was employed. In this manner, an IC50 value was determined.
# T1 sequence (P43116 whole entry): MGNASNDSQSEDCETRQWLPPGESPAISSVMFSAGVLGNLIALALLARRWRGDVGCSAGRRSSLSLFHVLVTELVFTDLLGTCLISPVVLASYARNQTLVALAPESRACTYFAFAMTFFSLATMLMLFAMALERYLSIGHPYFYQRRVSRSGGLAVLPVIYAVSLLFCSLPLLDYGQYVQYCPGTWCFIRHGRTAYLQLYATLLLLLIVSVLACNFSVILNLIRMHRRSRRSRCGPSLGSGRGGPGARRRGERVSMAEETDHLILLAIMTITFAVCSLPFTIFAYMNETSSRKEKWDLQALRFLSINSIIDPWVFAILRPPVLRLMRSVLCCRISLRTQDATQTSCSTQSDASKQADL
row,IC50,SMILES
1,5.4 nM,"CC[C@H](C)n1c(CCCc2ccccc2)ccc1C(=O)Nc1cc(C)cc([C@H]2C[C@H]2C(=O)O)c1 (relative stereo) [Example 2-1, rel-(1R,2S)-2-{3-[({1-[(2S)-2-Butanyl]-5-(3-phenylpropyl)-1H-pyrrol-2-yl}carbonyl)amino]-5-methylphenyl}cyclopropanecarboxylic acid]"
2,33 nM,"CC[C@H](C)n1c(CCCc2ccccc2)ccc1C(=O)Nc1cc(C)cc([C@@H]2C[C@H]2C(=O)O)c1 (relative stereo) [Example 2-2, rel-(1R,2R)-2-{3-[({1-[(2S)-2-Butanyl]-5-(3-phenylpropyl)-1H-pyrrol-2-yl}carbonyl)amino]-5-methylphenyl}cyclopropanecarboxylic acid]"
3,2.1 nM,"CC(C)n1c(CCCc2ccccc2)ccc1C(=O)Nc1cc([C@@H]2C[C@@H]2C(=O)O)ccc1C(F)(F)F [Example 3-1, (1S,2R)-2-[3-({[1-Isopropyl-5-(3-phenylpropyl)-1H-pyrrol-2-yl]carbonyl}amino)-4-(trifluoromethyl)phenyl]cyclopropanecarboxylic acid]"
4,77 nM,"CC(C)n1c(CCCc2ccccc2)ccc1C(=O)Nc1cc([C@@H]2C[C@H]2C(=O)O)ccc1C(F)(F)F [Example 3-2, (1R,2R)-2-[3-({[1-Isopropyl-5-(3-phenylpropyl)-1H-pyrrol-2-yl]carbonyl}amino)-4-(trifluoromethyl)phenyl]cyclopropanecarboxylic acid]"

# Second part, the compound before the results:
row,SMILES,IC50
1,"Cc1cc(OCCc2ccccc2)cc(C)c1C(=O)Nc1cc([C@H]2C[C@H]2C(=O)O)ccc1C(F)(F)F (racemic) [Example 11, rel-(1R,2S)-2-[3-{[2,6-Dimethyl-4-(2-phenylethoxy)benzoyl]amino}-4-(trifluoromethyl)phenyl]cyclopropanecarboxylic acid]",2.2 nM
2,"CCC(C)n1c(CCCc2ccccc2)ccc1C(=O)Nc1cc([C@H]2C[C@H]2C(=O)O)ccc1C(F)(F)F (relative stereo) [Example 1, rel-(1R,2S)-2-[3-({[1-sec-Butyl-5-(3-phenylpropyl)-1H-pyrrole-2-carbonyl]amino)-4-(trifluoromethyl)phenyl]cyclopropanecarboxylic acid]",< 0.3 nM
3,"CC[C@H](C)n1c(CCCc2ccccc2)ccc1C(=O)Nc1cc([C@H]2C[C@H]2C(=O)O)ccc1C(F)(F)F (relative stereo) [Example 2, rel-(1R,2S)-2-{3-[({1-[(2S)-2-Butanyl]-5-(3-phenylpropyl)-1H-pyrrol-2-yl}carbonyl)amino]-4-(trifluoromethyl)phenyl}cyclopropanecarboxylic acid]",1.6 nM
4,"CC[C@H](C)n1c(CCCc2ccccc2)ccc1C(=O)Nc1cc([C@H]2C[C@H]2C(=O)O)ccc1OC [Example 4, (1R,2S)-2-{3-[({1-[(2S)-2-Butanyl]-5-(3-phenylpropyl)-1H-pyrrol-2-yl}carbonyl)amino]-4-methoxyphenyl}cyclopropanecarboxylic acid]",2.6 nM
5,"CC[C@H](C)n1c(CCCc2ccccc2)ccc1C(=O)Nc1cc([C@@H]2C[C@@H]2C(=O)O)ccc1C(F)(F)F [Example 5, (1S,2R)-2-{3-[({1-[(2S)-2-Butanyl]-5-(3-phenylpropyl)-1H-pyrrol-2-yl}carbonyl)amino]-4-(trifluoromethyl)phenyl}cyclopropanecarboxylic acid]",2.5 nM
6,"CC[C@H](C)n1c(CCCc2ccccc2)ccc1C(=O)Nc1cc([C@H]2C[C@H]2C(=O)O)ccc1C(F)(F)F [Example 6, (1R,2S)-2-{3-[({1-[(2S)-2-Butanyl]-5-(3-phenylpropyl)-1H-pyrrol-2-yl}carbonyl)amino]-4-(trifluoromethyl)phenyl}cyclopropanecarboxylic acid]",< 0.3 nM
7,"CC[C@H](C)n1c(CCCc2ccccc2)ccc1C(=O)Nc1cc([C@H]2C[C@H]2C(=O)O)ccc1Cl [Example 7, (1R,2S)-2-{3-[({1-[(2S)-2-Butanyl]-5-(3-phenylpropyl)-1H-pyrrol-2-yl}carbonyl)amino]-4-chlorophenyl}cyclopropanecarboxylic acid]",0.3 nM
